Test results taken from patent US20260078110A1, “SESTERTERPENOID COMPOUNDS AND EXTRACT L01 OF LEUCOSCEPTRUM CANUM, AND USE THEREOF IN TREATMENT OF PSORIASIS” (Kunming Institute of Botany, CAS, priority 2023, published 2026).

Assays:
[1] = system: pro-inflammatory cytokine IFN-γ secretion by mouse T cells stimulated by CD3/CD28 monoclonal antibodies; assay: Inhibition of IFN-γ secretion by mouse T cells stimulated by CD3/CD28 monoclonal antibodies (ELISA); assay type: cell-based; conditions: T-cell, 48 h, C57BL/6 mouse T cells, CD3/CD28 mAb stimulation; for inhibition at 20 µM: read-out: Inhibitory rate (%, 20 μM)
Experimental: CD3, CD28 monoclonal antibodies, and kit for IFN-γ detection were purchased from BD Bioscience, Cell Counting Kit-8 (CCK-8) was purchased from MeilunBio®, and RPMI-1640 medium and fetal bovine serum were purchased from Biological Industries.
Preparation of samples to be tested: the 12 compounds of Example 1 were dissolved in DMSO, respectively to prepare 20 mM stock solutions.
Splenocytes were aseptically isolated from 6-8 week old female C57BL/6 mice, and T cells were isolated using a nylon wool column method. The T cells were then inoculated (4×10^5 cells/well) in a 96-well plate (which was coated with 5 μg/mL of CD3 monoclonal antibody). At the same time, a prepared compound solution of 40 μM, 20 μM, 10 μM, 5 μM, 2.5 μM, or 1.25 μM along with a 2 μg/mL solution of CD28 monoclonal antibody were added into each group, respectively, which were cultured in a 37° C./5% CO2 incubator. After 48 h, the supernatant of the cells was collected and the IFN-γ secretion in the supernatant was detected by an Enzyme-Linked Immuno-Sorbent Assay (ELISA); 10 μL of CCK-8 solution was added into each well, and OD450 was measured after incubation at 37° C. for 4 h to evaluate cell proliferation. […] The inhibitory activity of the compounds on IFN-γ was calculated, and the half-maximal inhibitory concentration (IC50) was analyzed using GraphPadPrism software.

[2] = system: imiquimod-induced psoriasis mice; assay: In vivo anti-psoriasis activity test on sesterterpenoid compound 6 (imiquimod-induced psoriasis mouse model); conditions: 25 and 50 mg/kg intraperitoneal injection, day 1 to 6
Experimental: Establishment and pharmacodynamic study of a mouse model of imiquimod-induced psoriasis: the mice were randomly divided into a control group, a model group, a methotrexate (MTX) treatment (1 mg/kg) group, and Leucosceptrum canum sesterterpenoid treatment (50 mg/kg, 150 mg/kg, 450 mg/kg) groups, with 6 mice in each group. The mice were depilated on their backs before the experiment, and 62.5 mg of […] imiquimod cream was evenly applied on the backs of mice while an equivalent amount of Vaseline was applied on the backs of mice in the normal control group from the 1st day, the application was performed once a day for 6 d. From the 1st day 1 to the 6th day, each treatment group was given the drug by gavage. During the experiment, the mice were weighed and scored for the Psoriasis Area and Severity Index (PASI) according to the following criteria: 0 points, normal skin without erythema and scales; 1 point, mild erythema, a few fine scales, and the skin at the lesion being slightly higher than normal skin; 2 points, moderate red plaques, the surface of the lesions being covered with scales, and the lesions being flaky or moderately raised; 3 points, severe dark red plaques, almost all the lesions being covered with thick scales or obvious lesions; 4 points, extremely severe and dark red plaques, all lesions being covered with highly thick layered scales, and the thickening and protrusion of the lesions being extremely obvious. After the experiment, the back skin of the mice was taken to make pathological sections. The levels of pro-inflammatory cytokines IFN-γ and IL-17A in mouse serum were detected by ELISA.
A method for establishing the imiquimod-induced psoriasis mouse model was the same as that in Example 4. The mice were randomly divided into a control group, a model group, a methotrexate (MTX) treatment group (1 mg/kg), and compound 6 treatment groups (25 and 50 mg/kg), with 6 mice in each group. From the 1st day to the 6th day, drugs were given to each treatment group by intraperitoneal injection. During the experiment, the mice were weighed and scored for PASI. After the experiment, the back skin of the mice was taken to make pathological sections. The levels of pro-inflammatory cytokines IFN-γ and IL-17A in mouse serum were detected by ELISA.

Row | SMILES | inhibition at 20 µM [1] [%] | other results
1 | CC(C)=C[C@]1(O)C(=O)[C@@H](C)[C@@H]2CC[C@H](C)[C@H]2[C@]1(O)C(=O)[C@H](C)CC[C@@H]1OC(=O)C=C1C [Compound 1] | 32.1 ± 5.46 | 
2 | CC(C)=C[C@]1(O)C(=O)[C@@H](C)[C@@H]2CC[C@H](C)[C@H]2[C@@]1(O)C(=O)[C@H](C)CC[C@@H]1OC(=O)C=C1C [Compound 2] | 51.3 ± 7.1 | 
3 | CC(C)=C[C@]1(O)C(=O)[C@@H](C)[C@@H]2CC[C@H](C)[C@H]2[C@@]1(O)C(=O)[C@H](C)CCc1occc1C [Compound 3] | 30.5 ± 6.55 | 
4 | CC[C@@H](C)C(=O)[C@@]1(O)[C@H]2[C@@H](CC[C@@H]2C)[C@H](C)[C@]2(O)OCC(C)=C[C@@]21O [Compound 4] | 26.7 ± 5.85 | 
5 | CC1=C[C@@]2(O)[C@@](O)(OC1)[C@@H](C)[C@@H]1CC[C@H](C)[C@H]1[C@]2(O)C(=O)[C@H](C)CCO [Compound 5] | 10.7 ± 2.74 | 
6 | CC1=C[C@@]2(O)[C@@](O)(OC1)[C@@H](C)[C@@H]1CC[C@H](C)[C@H]1[C@]2(O)C(=O)[C@H](C)CCc1occc1C [Compound 6] | 66.8 ± 3.02 | level of IFN-γ in the serum of psoriasis mice (FIG. 10A-10B, ELISA) [2]: significantly reduces; level of IL-17A in the serum of psoriasis mice (FIG. 10A-10B, ELISA) [2]: significantly reduces; pathological damage of the skin tissue of psoriasis mice (FIG. 9, HE staining) [2]: significantly inhibits; symptoms of psoriasis in mice (FIG. 8) [2]: significantly improves; IC50 [1]: 5.74 µM
7 | CC1=C[C@@]2(O)[C@@](O)(OC1)[C@@H](C)[C@@H]1CC[C@H](C)[C@H]1[C@]2(O)C(=O)[C@H](C)CC(=O)c1occc1C [Compound 7] | 36.2 ± 8.27 | 
8 | CC1=C[C@@]2(O)[C@@](O)(OC1)[C@@H](C)[C@@H]1CC[C@H](C)[C@H]1[C@]2(O)C(=O)[C@H](C)CCC1=C(C)CC(=O)O1 [Compound 8] | 43.1 ± 7.35 | 
9 | COC1(CC[C@@H](C)C(=O)[C@@]2(O)[C@H]3[C@@H](CC[C@@H]3C)[C@H](C)[C@]3(O)OCC(C)=C[C@@]32O)OC(=O)C=C1C (some centres unmarked) [Compound 9] | 39.6 ± 7.93 | 
10 | COC1C=C(C)C(CC[C@@H](C)C(=O)[C@@]2(O)[C@H]3[C@@H](CC[C@@H]3C)[C@H](C)[C@]3(O)OCC(C)=C[C@@]32O)(OC)O1 (some centres unmarked) [Compound 10] | 10.4 ± 3.02 | 
11 | CC1=C[C@@]2(O)[C@@](O)(OC1)[C@@H](C)[C@@H]1CC[C@H](C)[C@H]1[C@@]2(O)C(=O)[C@H](C)C[C@H]1C(=O)C(C)=C[C@@H]1O [Compound 11] | 23.4 ± 1.24 | 
12 | CC1=C[C@@]2(O)[C@@](O)(OC1)[C@@H](C)[C@@H]1CC[C@H](C)[C@H]1[C@@]2(O)C(=O)[C@@H](C)C[C@H]1C(=O)C(C)=C[C@@H]1O [Compound 12] | 33.8 ± 2.27 | 
